Laboratory results taken from US20250100963A1, “SULFONATED AND PHOSPHORYLATED AROMATIC MOLECULES” (Xavier University of Louisiana, priority 2023, published 2025).
Where two headings read alike, the source gives them in different places. Values belong to the compound of their own block, whether it stands above or below them.

Experiments:
[1] = target: T1, CatG (Homo sapiens, UniProt P08311); assay: Direct inhibition of human CatG, chromogenic substrate hydrolysis assay; format: biochemical
T1 sequence (P08311 21-244): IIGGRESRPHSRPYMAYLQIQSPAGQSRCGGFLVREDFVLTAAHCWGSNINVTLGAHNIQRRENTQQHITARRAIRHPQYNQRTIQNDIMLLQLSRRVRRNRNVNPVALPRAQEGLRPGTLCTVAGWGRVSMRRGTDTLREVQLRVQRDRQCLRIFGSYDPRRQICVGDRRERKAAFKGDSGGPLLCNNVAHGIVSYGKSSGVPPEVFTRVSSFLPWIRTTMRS
Protocol: The method further comprises inhibition of proteases. […] To each well of a 96-well microplate containing 88 μl of 20 mM tris buffer containing 100 mM NaCl, 2.5 mM CaCl2, 0.1% PEG 8000 and 0.05% tween 80 was added 3 μl of CatG (final concentration of 30 nM), and 5 μl of H2O or potential inhibitor (final concentration of 0-100 μM). Following a 5-min incubation, 3 μl of CatG substrate was added (final concentration 750 μM) and the residual CatG activity was obtained from the initial rate of increase of absorbance at 405 nm. The relative residual activity of CatG at each of the inhibitor concentrations was obtained from the ratio of CatG activity in the presence and absence of the inhibitor. Logistic Equation (1) was used to plot the dose-dependence curve to obtain the IC50 (potency) and efficacy of CatG inhibition. Here, Y is the ratio of residual CatG activity in the presence of inhibitor to that in its absence, YO and YM are the minimum and maximum values of fractional residual CatG activity, respectively, IC50 is the concentration of the inhibitor that results in 50% inhibition of CatG activity and HS is the Hill slope.
To each well of a 96-well microplate containing 88 μl of 20 mM tris buffer containing 100 mM NaCl, 2.5 mM CaCl2, 0.1% PEG 8000 and 0.05% tween 80 was added 3 μl of CatG (final concentration of 30 nM), and 5 μl of H2O or potential inhibitor (final concentration of 0-100 μM). Following a 5-min incubation, 3 μl of CatG substrate was added (final concentration 750 μM) and the residual CatG activity was obtained from the initial rate of increase of absorbance at 405 nm. The relative residual activity of CatG at each of the inhibitor concentrations was obtained from the ratio of CatG activity in the presence and absence of the inhibitor. Logistic Equation (1) was used to plot the dose-dependence curve to obtain the IC50 (potency) and efficacy of CatG inhibition. Here, Y is the ratio of residual CatG activity in the presence of inhibitor to that in its absence, YO and YM are the minimum and maximum values of fractional residual CatG activity, respectively, IC50 is the concentration of the inhibitor that results in 50% inhibition of CatG activity and HS is the Hill slope.

[2] = target: Human FXIa (Homo sapiens, UniProt P03951); assay: Direct inhibition of FXIa, chromogenic substrate hydrolysis assay; format: biochemical; details: Tris-HCl buffer
Protocol: (§1) Direct inhibitions of thrombin (FIIa), factor VIIa (FVIIa), factor IXa (FIXa), factor Xa (FXa), FXIa, factor XIIa (FXIIa), trypsin and chymotrypsin were evaluated using the corresponding chromogenic substrate hydrolysis assays as previously reported. Briefly, to each well of a 96-well microplate containing 85-185 μl of […] Tris buffer containing 100 mM NaCl, 2.5 mM CaCl2, 0.1% PEG 8000, and 0.05% tween 80 at 25 (thrombin) or 37° C. (FVIIa, FIXa, FXa, FXIa, FXIIa, chymotrypsin, and trypsin) were added 5 μl of enzyme (thrombin, FVIIa, FIXa, FXa, FXIa, FXIIa, chymotrypsin, and trypsin) and 5 μl of the inhibitor. Following an incubation period of 5 min, the appropriate chromogenic substrates (Spectrozyme TH, Spectrozyme FIXa, Spectrozyme FXa, S-2366, Spectrozyme FXIIa and S-2222) were added and the residual enzyme activity was measured from the initial rate of increase in absorbance at 405 nm. Relative residual enzyme activity as a function of the inhibitor concentration was fitted using Logistic Equation (1) to obtain the IC50 (potency), A Y % (efficacy) of enzyme inhibition, and HS (Hill slope). The concentrations of enzymes and substrates in microplate cells were: 6 nM and 50 μM for thrombin; 1.09 nM and 125 μM for FXa; 5 nM and 125 μM for FXIIa; 89 nM and 850 μM for FIXa; 8 nM and 1000 µM for FVIIa (along with 40 nM recombinant tissue factor); 72.5 ng/ml and 80 μM for bovine trypsin; and 500 ng/ml and 240 μM for bovine chymotrypsin.

[3] = target: Thrombin (human FIIa) (Homo sapiens, UniProt P00734); assay: Direct inhibition of thrombin, chromogenic substrate hydrolysis assay; format: biochemical; details: Tris-HCl buffer; estimated from the highest concentration used
Protocol: as §1, with “The concentrations of enzymes and substrates in microplate cells were: 6 nM and 50 μM for thrombin; 1.09 nM and 125 μM for FXa; 5 nM and 125 μM for FXIIa; 89 nM and 850 μM for FIXa; 8 nM and 1000 µM for FVIIa (along with 40 nM recombinant tissue factor); 72.5 ng/ml and 80 μM for bovine trypsin; and 500 ng/ml and 240 μM for bovine chymotrypsin.” left out

[4] = target: T2, FXa (Homo sapiens, UniProt P00742); assay: Direct inhibition of FXa, chromogenic substrate hydrolysis assay; format: biochemical; details: Tris-HCl buffer
T2 construct: factor Xa (FXa), FXIa, factor XIIa (FXIIa), trypsin and chymotrypsin
Protocol: as §1, with “The concentrations of enzymes and substrates in microplate cells were: 6 nM and 50 μM for thrombin; 1.09 nM and 125 μM for FXa; 5 nM and 125 μM for FXIIa; 89 nM and 850 μM for FIXa; 8 nM and 1000 µM for FVIIa (along with 40 nM recombinant tissue factor); 72.5 ng/ml and 80 μM for bovine trypsin; and 500 ng/ml and 240 μM for bovine chymotrypsin.” left out

[5] = target: T1, CatG; details: reported; read-out: estimated Ki, allosteric inhibitor; cited from earlier work
[6] = Tris buffer pH 7.4, 37° C., 100 mM NaCl, read-out: IC50

Chain of Human FXIa (P03951 388-625): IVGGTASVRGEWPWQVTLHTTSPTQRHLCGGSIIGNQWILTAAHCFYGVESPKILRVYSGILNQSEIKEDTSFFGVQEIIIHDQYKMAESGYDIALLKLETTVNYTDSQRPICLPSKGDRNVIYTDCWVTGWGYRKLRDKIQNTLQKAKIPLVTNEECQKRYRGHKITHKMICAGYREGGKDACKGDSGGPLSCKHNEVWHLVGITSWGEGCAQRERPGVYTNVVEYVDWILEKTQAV
Chain of Human FXIa (P03951 19-387 partner): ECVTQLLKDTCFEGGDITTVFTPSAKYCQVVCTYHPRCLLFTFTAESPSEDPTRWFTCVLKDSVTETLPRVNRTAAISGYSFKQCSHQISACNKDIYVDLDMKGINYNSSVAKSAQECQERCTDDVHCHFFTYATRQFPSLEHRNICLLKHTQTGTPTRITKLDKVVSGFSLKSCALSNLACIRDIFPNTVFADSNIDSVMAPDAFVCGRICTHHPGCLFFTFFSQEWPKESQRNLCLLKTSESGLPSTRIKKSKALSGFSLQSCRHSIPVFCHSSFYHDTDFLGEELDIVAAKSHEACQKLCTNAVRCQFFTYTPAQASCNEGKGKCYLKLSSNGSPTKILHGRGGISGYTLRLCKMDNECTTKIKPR
T2 sequence (P00742 235-488): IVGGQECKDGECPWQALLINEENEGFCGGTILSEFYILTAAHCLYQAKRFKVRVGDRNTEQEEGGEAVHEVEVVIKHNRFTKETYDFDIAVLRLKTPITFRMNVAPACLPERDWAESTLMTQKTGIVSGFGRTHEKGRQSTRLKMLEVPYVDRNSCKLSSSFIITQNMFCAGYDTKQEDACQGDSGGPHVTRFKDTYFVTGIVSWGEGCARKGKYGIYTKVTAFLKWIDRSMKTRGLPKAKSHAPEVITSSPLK
T2 sequence (P00742 41-179 partner): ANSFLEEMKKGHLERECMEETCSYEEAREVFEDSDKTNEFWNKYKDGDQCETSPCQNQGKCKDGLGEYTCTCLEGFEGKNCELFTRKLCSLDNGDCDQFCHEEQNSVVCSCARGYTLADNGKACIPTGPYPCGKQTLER

Compound: O=C(Nc1cc(C(=O)Nc2cc(S(=O)(=O)O)ccc2S(=O)(=O)O)cc(C(=O)Nc2cc(S(=O)(=O)O)ccc2S(=O)(=O)O)c1)Nc1cc(C(=O)Nc2cc(S(=O)(=O)O)ccc2S(=O)(=O)O)cc(C(=O)Nc2cc(S(=O)(=O)O)ccc2S(=O)(=O)O)c1 [2,2′,2″,2″′-((5,5′-(carbonylbis(azanediyl))bis(isophthaloyl))tetrakis(azanediyl))tetrakis(benzene-1,4-disulfonic acid)]
IC50 ([1]; Table 6, read-out: CATG IC50): 1 to 5 µM

Compound: O=C(Nc1cc(C(=O)Nc2ccc(S(=O)(=O)O)cc2)cc(C(=O)Nc2ccc(S(=O)(=O)O)cc2S(=O)(=O)O)c1)Nc1cc(C(=O)Nc2ccc(S(=O)(=O)O)cc2)cc(C(=O)Nc2ccc(S(=O)(=O)O)cc2S(=O)(=O)O)c1 [4,4′-((3,3′-(carbonylbis(azanediyl))bis(5-((4-sulfophenyl)carbamoyl)benzoyl))bis(azanediyl))bis(benzene-1,3-disulfonic acid)]
IC50 ([1]; Table 6, read-out: CATG IC50): 0.5 to 1 µM

Compound: Cc1ccc(C(=O)Nc2ccc(CP(=O)(O)O)cc2)cc1NC(=O)c1cccc(NC(=O)Nc2cccc(C(=O)Nc3cc(C(=O)Nc4ccc(CP(=O)(O)O)cc4)ccc3C)c2)c1 [((((3,3′-((3,3′-(carbonylbis(azanediyl))bis(benzoyl))bis(azanediyl))bis(4-methylbenzoyl))bis(azanediyl))bis(4,1-phenylene))bis(methylene))bis(phosphonic acid)]
IC50 ([1]; Table 6, read-out: CATG IC50): 10 to 100 µM

Compound: Cc1ccc(C(=O)Nc2ccc(CP(=O)(O)O)cc2CP(=O)(O)O)cc1NC(=O)Nc1cc(C(=O)Nc2ccc(CP(=O)(O)O)cc2CP(=O)(O)O)ccc1C [((((3,3′-(carbonylbis(azanediyl))bis(4-methylbenzoyl))bis(azanediyl))bis(4,1-phenylene))bis(methylene))bis(phosphonic acid)]
IC50 ([1]; Table 6, read-out: CATG IC50): 10 to 100 µM

Compound: O=C(Nc1cc(C(=O)Nc2ccc(S(=O)(=O)O)cc2)cc(C(=O)Nc2ccc(S(=O)(=O)O)cc2)c1)Nc1cc(C(=O)Nc2ccc(S(=O)(=O)O)cc2)cc(C(=O)Nc2ccc(S(=O)(=O)O)cc2)c1 [Formula I, 4,4′,4″,4″-((5,5′-(carbonylbis(azanediyl))bis(isophthaloyl))tetrakis(azanediyl))tetrabenzenesulfonic acid]
HS (Hill slope) [2]: 1.2 ± 0.2
IC50 [2]: 29.5 ± 4.6 µM
ΔY (efficacy) [2]: 90.9 ± 5.8%
IC50 [3]: > 100 µM
IC50 ([1]; Table 6, read-out: CATG IC50): 0.83 µM
HS (Hill slope) ([1]; Tris buffer pH 7.4, 37° C.): 1.7 ± 0.4
ΔY (efficacy) ([1]; Tris buffer pH 7.4, 37° C.): 91.9 ± 6.8%
IC50 [1, 6]: 0.083 ± 0.14 µM
IC50 [4]: > 100 µM

Compound: Cc1ccc(C(=O)Nc2ccc(CP(=O)(O)O)cc2CP(=O)(O)O)cc1NC(=O)c1cccc(NC(=O)Nc2cccc(C(=O)Nc3cc(C(=O)Nc4ccc(CP(=O)(O)O)cc4CP(=O)(O)O)ccc3C)c2)c1 [Formula III, ((((3,3′-((3,3′-(carbonylbis(azanediyl))bis(benzoyl))bis(azanediyl))bis(4-methylbenzoyl))bis(azanediyl))bis(benzene-4,1,3-triyl))tetrakis(methylene))tetrakis(phosphonic acid)]
HS (Hill slope) [2]: 1.9 ± 0.5
ΔY (efficacy) [2]: 68.0 ± 3.7%
IC50 [3]: > 500 µM
IC50 ([1]; Table 6, read-out: CATG IC50): 3.1 µM
HS (Hill slope) ([1]; Tris buffer pH 7.4, 37° C.): 1.1 ± 0.1
ΔY (efficacy) ([1]; Tris buffer pH 7.4, 37° C.): 87.5 ± 1.8%
IC50 [1, 6]: 3.1 µM
IC50 [4]: > 100 µM

Compound: heparin
Ki [5]: < 0.025 nM

Now from value to compound:

IC50 ([1]; Table 6, read-out: CATG IC50): 1 to 5 µM
Compound: O=C(Nc1cc(C(=O)Nc2ccccc2S(=O)(=O)O)cc(C(=O)Nc2ccccc2S(=O)(=O)O)c1)Nc1cc(C(=O)Nc2ccccc2S(=O)(=O)O)cc(C(=O)Nc2ccccc2S(=O)(=O)O)c1 [2,2′,2″,2″′-((5,5′-(carbonylbis(azanediyl))bis(isophthaloyl))tetrakis(azanediyl))tetrabenzenesulfonic acid]

IC50 ([1]; Table 6, read-out: CATG IC50): 1 to 10 µM
Compound: O=C(Nc1cccc(C(=O)Nc2cccc(C(=O)Nc3cccc(P(=O)(O)O)c3)c2)c1)Nc1cccc(C(=O)Nc2cccc(C(=O)Nc3cccc(P(=O)(O)O)c3)c2)c1 [(((3,3′-((3,3′-(carbonylbis(azanediyl))bis(benzoyl))bis(azanediyl))bis(benzoyl))bis(azanediyl))bis(3,1-phenylene))bis(phosphonic acid)]

IC50 ([1]; Table 6, read-out: CATG IC50): 1 to 10 µM
Compound: O=C(Nc1cccc(C(=O)Nc2ccc(CP(=O)(O)O)cc2CP(=O)(O)O)c1)Nc1cccc(C(=O)Nc2ccc(CP(=O)(O)O)cc2CP(=O)(O)O)c1 [((((3,3′-(carbonylbis(azanediyl))bis(4-methylbenzoyl))bis(azanediyl))bis(benzene-4,1,3-triyl))tetrakis(methylene))tetrakis(phosphonic acid)]
